Experimental data from article PMC7998589, “A Radiobrominated Tyrosine Kinase Inhibitor for EGFR with L858R/T790M Mutations in Lung Carcinoma” (Pharmaceuticals, 2021).
Blank lines part the entries; values can stand above or below the compound they belong to.

Columns and labels:
EGFR L858R/T790M = tested on: EGFR L858R/T790M; set-up: method as in PMID 32599930; conditions: ref [9]; cited from earlier work
H441 (wild-type EGFR) = tested on: H441 (wild-type EGFR); set-up: method as in PMID 32599930; conditions: WST-8, ref [9]; cited from earlier work
H3255 (EGFR L858R) = tested on: H3255 (EGFR L858R); set-up: method as in PMID 32599930; conditions: WST-8, ref [9]; cited from earlier work
H1975 (EGFR L858R/T790M) = tested on: H1975 (EGFR L858R/T790M); set-up: method as in PMID 32599930; conditions: WST-8, ref [9]; cited from earlier work
H1975 and H441 tumors = test: Biodistribution of double tracers in tumor-bearing mice; format: in vivo, BALB/c nu/nu mice
Experimental: Six weeks old male ddY mice and four weeks old female BALB/c nu/nu mice were purchased from Japan SLC Inc. (Hamamatsu, Japan). Tumor-bearing mice were prepared by subcutaneous injection of cells suspended in 100 μL medium to the female BALB/c nu/nu mice. H1975 cells (5 × 10^6 cells) were implanted in the right shoulder, and H441 cells (3 × 10^6 cells) were implanted in the left shoulder. The tumor reached palpable size after post-inoculation 12 and 9 days for H1975 and H441, respectively.
(§1) One month later, ^125I activity was determined.

[1] = tested on: H1975 (L858R/T790M double mutations EGFR); test: Cellular uptake and blocking study, H1975; format: cell-based, human
Experimental: H1975 (1 × 10^5 cells/well), H441 (1 × 10^5 cells/well), and H3255 (2 × 10^5 cells/well) NSCLC cells were cultured in 6 well plates. Cells were incubated in medium with 10% FBS and 100 IU/mL penicillin–streptomycin at 37 °C in a humidified atmosphere with 5% CO2 for 24 h. […] The cells were dissolved by a 1.0 M NaOH aqueous solution (0.5 mL × 2). The cell lysate was transferred into a test tube. The radioactivity of ^77Br was measured by an auto well gamma counter at a 100–600 keV energy range. […] The BCA protein assay kit protocol was used to determine the protein concentration.

[2] = Determination of partition coefficient (n-octanol / 0.1 M phosphate buffer pH 7.4); format: physicochemical
Experimental: To determine the lipophilicity, the partition coefficient of [^77Br]9 was measured as described previously.

[3] = Biodistribution of double tracers in normal mice; format: in vivo; conditions: ddY mice
Experimental: as §1

[4] = Stability assessment in PBS and murine plasma; format: in vitro ADME, mouse; conditions: 1 h, 37 °C
Experimental: The stability profile of [^77Br]9 in phosphate-buffered saline (PBS) and murine plasma is presented in Supporting Information (Figure S2). [^77Br]9 was >80% intact in PBS and murine plasma after incubation for 1 h at 37 °C. Its purity decreased to 57% after 24 h of incubation.
To confirm the stability, we measured the purity of radiotracer after incubation in PBS and mouse plasma, respectively, as described previously.

Compound: C=CC(=O)Nc1cccc(Nc2nc(Nc3ccc(N4CCN(C(C)=O)CC4)cc3OC)ncc2C(F)(F)F)c1 [CO-1686, rociletinib]
selectivity toward EGFR L858R/T790M compared with wild-type EGFR (EGFR L858R/T790M): high selectivity | IC50 (H441 (wild-type EGFR)): 260 ± 40 nM | IC50 (H3255 (EGFR L858R)): 150 ± 20 nM | IC50 (H1975 (EGFR L858R/T790M)): 140 ± 50 nM

Compound: C=CC(=O)Nc1cc(I)cc(Nc2nc(Nc3ccc(N4CCN(C(C)=O)CC4)cc3OC)ncc2C(F)(F)F)c1 [ICO1686]
selectivity toward EGFR L858R/T790M compared with wild-type EGFR (EGFR L858R/T790M): high selectivity | IC50 (H441 (wild-type EGFR)): 1840 ± 440 nM | IC50 (H3255 (EGFR L858R)): 500 ± 210 nM | IC50 (H1975 (EGFR L858R/T790M)): 200 ± 50 nM

Biodistribution, Blood (H1975 and H441 tumors; 1 h after i.v. injection): 5.64 % ID/g | Biodistribution, Bone (H1975 and H441 tumors; 1 h after i.v. injection): 1.93 % ID/g | Biodistribution, Brain (H1975 and H441 tumors; 1 h after i.v. injection): 1.49 % ID/g | Biodistribution, H441 tumor (H1975 and H441 tumors; 1 h after i.v. injection): 3.71 % ID/g | Biodistribution, H1975 tumor (H1975 and H441 tumors; 1 h after i.v. injection): 4.51 % ID/g | Biodistribution, Heart (H1975 and H441 tumors; 1 h after i.v. injection): 5.36 % ID/g | Biodistribution, Kidney (H1975 and H441 tumors; 1 h after i.v. injection): 7.75 % ID/g | Biodistribution, Large intestine (H1975 and H441 tumors; 1 h after i.v. injection): 24.33 % ID/g | Biodistribution, Liver (H1975 and H441 tumors; 1 h after i.v. injection): 15.89 % ID/g | Biodistribution, Lung (H1975 and H441 tumors; 1 h after i.v. injection): 11.42 % ID/g | Biodistribution, Muscle (H1975 and H441 tumors; 1 h after i.v. injection): 3.42 % ID/g | Biodistribution, Pancreas (H1975 and H441 tumors; 1 h after i.v. injection): 12.95 % ID/g | Biodistribution, Small intestine (H1975 and H441 tumors; 1 h after i.v. injection): 64.52 % ID/g | Biodistribution, Spleen (H1975 and H441 tumors; 1 h after i.v. injection): 9.19 % ID/g | Biodistribution, Stomach (H1975 and H441 tumors; 1 h after i.v. injection): 1.31 % ID/organ | Biodistribution, Blood (H1975 and H441 tumors; 6 h after i.v. injection): 5.35 % ID/g | Biodistribution, Bone (H1975 and H441 tumors; 6 h after i.v. injection): 1.95 % ID/g | Biodistribution, Brain (H1975 and H441 tumors; 6 h after i.v. injection): 1.39 % ID/g | Biodistribution, H441 tumor (H1975 and H441 tumors; 6 h after i.v. injection): 3.30 % ID/g | Biodistribution, H1975 tumor (H1975 and H441 tumors; 6 h after i.v. injection): 3.48 % ID/g | Biodistribution, Heart (H1975 and H441 tumors; 6 h after i.v. injection): 2.99 % ID/g | Biodistribution, Kidney (H1975 and H441 tumors; 6 h after i.v. injection): 4.91 % ID/g | Biodistribution, Large intestine (H1975 and H441 tumors; 6 h after i.v. injection): 59.40 % ID/g | Biodistribution, Liver (H1975 and H441 tumors; 6 h after i.v. injection): 6.76 % ID/g | Biodistribution, Lung (H1975 and H441 tumors; 6 h after i.v. injection): 6.29 % ID/g | Biodistribution, Muscle (H1975 and H441 tumors; 6 h after i.v. injection): 1.79 % ID/g | Biodistribution, Pancreas (H1975 and H441 tumors; 6 h after i.v. injection): 4.28 % ID/g | Biodistribution, Small intestine (H1975 and H441 tumors; 6 h after i.v. injection): 12.46 % ID/g | Biodistribution, Spleen (H1975 and H441 tumors; 6 h after i.v. injection): 2.04 % ID/g | Biodistribution, Stomach (H1975 and H441 tumors; 6 h after i.v. injection): 1.27 % ID/organ | logP [2]: 1.72 ± 0.21 | Biodistribution, Blood ([3]; 10 min after i.v. injection): 3.57 % ID/g | Biodistribution, Bone ([3]; 10 min after i.v. injection): 2.76 % ID/g | Biodistribution, Brain ([3]; 10 min after i.v. injection): 0.45 % ID/g | Biodistribution, Heart ([3]; 10 min after i.v. injection): 4.57 % ID/g | Biodistribution, Kidney ([3]; 10 min after i.v. injection): 11.68 % ID/g | Biodistribution, Large intestine ([3]; 10 min after i.v. injection): 2.83 % ID/g | Biodistribution, Liver ([3]; 10 min after i.v. injection): 11.04 % ID/g | Biodistribution, Lung ([3]; 10 min after i.v. injection): 8.72 % ID/g | Biodistribution, Muscle ([3]; 10 min after i.v. injection): 3.18 % ID/g | Biodistribution, Pancreas ([3]; 10 min after i.v. injection): 3.78 % ID/g | Biodistribution, Small intestine ([3]; 10 min after i.v. injection): 25.38 % ID/g | Biodistribution, Spleen ([3]; 10 min after i.v. injection): 5.11 % ID/g | Biodistribution, Stomach ([3]; 10 min after i.v. injection): 6.17 % ID/organ | Biodistribution, Blood ([3]; 1 h after i.v. injection): 3.24 % ID/g | Biodistribution, Bone ([3]; 1 h after i.v. injection): 1.66 % ID/g | Biodistribution, Brain ([3]; 1 h after i.v. injection): 0.95 % ID/g | Biodistribution, Heart ([3]; 1 h after i.v. injection): 2.93 % ID/g | Biodistribution, Kidney ([3]; 1 h after i.v. injection): 4.21 % ID/g | Biodistribution, Large intestine ([3]; 1 h after i.v. injection): 3.18 % ID/g | Biodistribution, Liver ([3]; 1 h after i.v. injection): 3.83 % ID/g | Biodistribution, Lung ([3]; 1 h after i.v. injection): 4.97 % ID/g | Biodistribution, Muscle ([3]; 1 h after i.v. injection): 2.02 % ID/g | Biodistribution, Pancreas ([3]; 1 h after i.v. injection): 3.58 % ID/g | Biodistribution, Small intestine ([3]; 1 h after i.v. injection): 26.49 % ID/g | Biodistribution, Spleen ([3]; 1 h after i.v. injection): 4.83 % ID/g | Biodistribution, Stomach ([3]; 1 h after i.v. injection): 7.00 % ID/organ | Biodistribution, Blood ([3]; 4 h after i.v. injection): 3.19 % ID/g | Biodistribution, Bone ([3]; 4 h after i.v. injection): 1.54 % ID/g | Biodistribution, Brain ([3]; 4 h after i.v. injection): 0.74 % ID/g | Biodistribution, Heart ([3]; 4 h after i.v. injection): 1.87 % ID/g | Biodistribution, Kidney ([3]; 4 h after i.v. injection): 2.81 % ID/g | Biodistribution, Large intestine ([3]; 4 h after i.v. injection): 47.73 % ID/g | Biodistribution, Liver ([3]; 4 h after i.v. injection): 3.72 % ID/g | Biodistribution, Lung ([3]; 4 h after i.v. injection): 5.08 % ID/g | Biodistribution, Muscle ([3]; 4 h after i.v. injection): 1.13 % ID/g | Biodistribution, Pancreas ([3]; 4 h after i.v. injection): 3.04 % ID/g | Biodistribution, Small intestine ([3]; 4 h after i.v. injection): 5.23 % ID/g | Biodistribution, Spleen ([3]; 4 h after i.v. injection): 2.92 % ID/g | Biodistribution, Stomach ([3]; 4 h after i.v. injection): 6.68 % ID/organ | Biodistribution, Blood ([3]; 24 h after i.v. injection): 1.99 % ID/g | Biodistribution, Bone ([3]; 24 h after i.v. injection): 0.89 % ID/g | Biodistribution, Brain ([3]; 24 h after i.v. injection): 0.42 % ID/g | Biodistribution, Heart ([3]; 24 h after i.v. injection): 0.80 % ID/g | Biodistribution, Kidney ([3]; 24 h after i.v. injection): 1.33 % ID/g | Biodistribution, Large intestine ([3]; 24 h after i.v. injection): 0.98 % ID/g | Biodistribution, Liver ([3]; 24 h after i.v. injection): 1.04 % ID/g | Biodistribution, Lung ([3]; 24 h after i.v. injection): 1.62 % ID/g | Biodistribution, Muscle ([3]; 24 h after i.v. injection): 0.47 % ID/g | Biodistribution, Pancreas ([3]; 24 h after i.v. injection): 1.13 % ID/g | Biodistribution, Small intestine ([3]; 24 h after i.v. injection): 1.00 % ID/g | Biodistribution, Spleen ([3]; 24 h after i.v. injection): 1.14 % ID/g | Biodistribution, Stomach ([3]; 24 h after i.v. injection): 2.21 % ID/organ | eliminated in feces ([3]; 24 h postinjection): 35% | intact in PBS ([4]; PBS): > 80% | intact in murine plasma ([4]; murine plasma): > 80%
Compound: C=CC(=O)Nc1cc([77Br])cc(Nc2nc(Nc3ccc(N4CCN(C(C)=O)CC4)cc3OC)ncc2C(F)(F)F)c1 [[^77Br]9]
accumulation in H1975 versus H3255 and H441 ([1]; 4 h of incubation): significantly higher | reduction of uptake upon pretreatment with CO-1686 ([1]; H1975): ~60% | accumulation of radioactivity with pretreatment with excess CO-1686 ([1]; H1975, 4 h, CO-1686 100 µM blocking): 56.9 % dose/mg protein | accumulation of radioactivity (cell uptake) ([1]; H1975, 4 h incubation): 136.3 % dose/mg protein | effect of gefitinib on uptake ([1]; H1975, gefitinib 100 µM blocking): not significantly reduced
